Experimental data published in patent publication US20260221482A1, “REDOX FLOW BATTERY” (CAMBRIDGE ENTERPRISE LIMITED, priority 2023, published 2026).

Columns and labels:
Format in all cases: physicochemical
[1] = Cyclic voltammetry in N2 purged 0.1 M NaCl aqueous solutions; conditions: 1 mM
Procedure: Cyclic voltammetry experiments were carried out at 25° C. in N2 purged 0.1 M NaCl aqueous solutions with a Metrohm Eco Chemie Autolab PGSTAT12 potentiostat, working on GPES 4.9 software. A three-electrode configuration was used with a 3 mm or 1.6 mm glassy carbon working electrode, a platinum counter electrode, and RE-5B Ag/AgCl BASI reference electrode. The glassy carbon electrode was polished before each measurement using a 0.05 μm alumina-H2O slurry on a polishing cloth. CV was performed at 1 mM concentrations of the respective compound using a scan rate of 20 mV s^−1.

[2] = EPR and CV modelling studies of redox equilibria (comproportionation, π-dimerisation); conditions: for Kc from CV: comproportionation equilibrium constant from CV curve fitting; for Kd: equilibrium constant of π-dimerisation of singly reduced form, estimated at 50% SOC; for Kc, obs from EPR: observed comproportionation equilibrium constant, fit of spin counting radical fraction
Procedure: An analysis of compounds 10, 11, and 13 associated redox equilibria was carried out. Expressing the two single electron reductions as a comproportionation equilibrium with an equilibrium constant of comproportionation, Kc, an equation for radical fraction as a function of battery SOC was obtained.
The difference between redox events is related to the comproportionation equilibrium constant Kc by:
For the compounds comproportionation equilibrium:
fits to experimental radical concentration data were obtained by:
Where n is the number of electrons that have been removed from the system, starting from 100% SOC and x is the fraction of radicals.
For π-dimerisation equilibria, Kd values were estimated as follows. At 50% SOC, 1 electron equivalent of the starting concentration of viologen, V0, has been added to create reduced species, thus giving the previous result:
As the initial concentration (V0), Kc and the radical concentration (V^3+·) at this state of charge is known, the dimerisation constant can be calculated with:
This equation was used to fit experimental radical fraction data obtained by the EPR-based method of spin counting, from which the observed comproportionation equilibrium constant Kc,obs was extracted. Upon fitting, Kc,obs values of 0.75, 0.021 and 0.0021 were found for 10, 11, and 13, respectively (Table 2).
The equation was also used for CV curve fitting, from which much better agreement with experimental data was obtained. Relating the difference in first and second redox events obtained by CV curve fitting to Kc, ‘true’ Kc values could be estimated and compared to Kc,obs values. Respective Ko values for 10, 11, and 13 were 3.2×10^5, 1.3 and 2.9 (see Table 2)—substantially higher than the Kc,obs values. […] The strongest candidates for these are dimerisation equilibria.

[3] = In situ DOSY NMR of flowing electrolyte at various SOCs; conditions: diffusivity
Procedure: Pseudo-2D NMR experiments were performed on the flowing electrolyte solution by direct excitation with a 90° radiofrequency pulse. Each NMR spectrum is acquired by collecting eight free induction decays with a recycle delay of 15 s. The pulse width for a 90° pulse was 27 μs at 30 W. All spectra were referenced to the water chemical shift at 4.79 ppm. NMR data were processed using TopSpin 3.6.3 (Bruker). EPR data were processed using EasySpin version 5.2.30. Electrochemical data were processed using EC-lab 11.36 (BioLogic).
The flow was stopped during the acquisition period (12 min) to carry out the DOSY NMR.
In situ DOSY NMR experiments carried out for 10, 11, and 13 at 0%, 50%, and 100% SOC (Table 1).

[4] = Rates of electron transfer
[5] = Additional cyclic voltammetry under nitrogen and under air; conditions: 1 mM, 0.1 M NaCl
Procedure: Cyclic voltammetry experiments were carried out for aqueous solutions of compound 20 and 10 at 25° C. and a concentration of 1 mM in 0.1 M NaCl with a Metrohm Eco Chemie Autolab PGSTAT12 potentiostat, working on GPES 4.9 software. Where the CV was carried out under nitrogen the solution was purged with nitrogen. A three-electrode configuration was used with a 3 mm glassy carbon working electrode, a platinum counter electrode, and RE-5B Ag/AgCl BASI reference electrode. The glassy carbon electrode was polished before each measurement using a 0.05 μm alumina-H2O slurry on a polishing cloth. CV was performed using a scan rate of 20 mV s^−1.

## C[N+](C)(C)CCC[n+]1ccc(-c2cc[n+](CCC[N+](C)(C)C)cc2)cc1 [Compound 10]
[1]
  redox reversibility by cyclic voltammetry: reversible redox processes
[1]; vs SHE, 25° C., 20 mV s^−1
  reversible potential, first reduction: −0.35 V
  reversible potential, second reduction: −0.68 V
[2]
  average Kc extracted from the radical concentration: 0.7
  Kc from CV: 3.2×10^5
  Kd: 0.28 mM⁻¹
  Kc, obs from EPR: 0.75
[3]
  D at 0% SOC: 3.6 ± 0.1 ×10^−10 m^2 s^−1
  D at 50% SOC: 3.6 ± 0.2 ×10^−10 m^2 s^−1
  D at 100% SOC: 3.4 ± 0.1 ×10^−10 m^2 s^−1

## C[N+](C)(C)CCC[n+]1ccc(-c2ccc(-c3cc[n+](CCC[N+](C)(C)C)cc3)s2)cc1 [Compound 17]
[1]
  redox reversibility by cyclic voltammetry: reversible redox processes
[1]; vs SHE, 25° C., 20 mV s^−1
  reversible potential, second reduction: −0.67 V
[4]
  rate of electron transfer k0: 0.0028 cm/s

## C[N+](C)(C)CCC[n+]1ccc(-c2ccc(-c3ccc(-c4cc[n+](CCC[N+](C)(C)C)cc4)s3)s2)cc1 [Compound 18]
[1]
  redox reversibility by cyclic voltammetry: reversible redox processes

## C[N+](C)(C)CCC[n+]1ccc(-c2ccc3cc(-c4cc[n+](CCC[N+](C)(C)C)cc4)ccc3c2)cc1 [Compound 13]
[1]
  redox reversibility by cyclic voltammetry: reversible redox processes
[2]
  average Kc extracted from the radical concentration: 0.002
  Kc from CV: 2.9
  Kd: 76 mM⁻¹
  Kc, obs from EPR: 0.0021
[3]
  D at 0% SOC: 2.8 ± 0.1 ×10^−10 m^2 s^−1
  D at 50% SOC: 1.9 ± 0.2 ×10^−10 m^2 s^−1
  D at 100% SOC: 2.1 ± 0.5 ×10^−10 m^2 s^−1

## C[N+](C)(C)CCC[n+]1ccc(-c2ccc3ccc(-c4cc[n+](CCC[N+](C)(C)C)cc4)cc3c2)cc1 [Compound 14]
[1]
  redox reversibility by cyclic voltammetry: does not have a reversible potential

## C[N+](C)(C)CCC[n+]1ccc(-c2ccc(-c3ccc(-c4cc[n+](CCC[N+](C)(C)C)cc4)cc3)cc2)cc1 [Compound 16]
[1]
  redox reversibility by cyclic voltammetry: electrochemically irreversible

## C[N+](C)(C)c1ccc(-[n+]2ccc(-c3cc[n+](-c4ccc([N+](C)(C)C)cc4)cc3)cc2)cc1 [Compound 20]
[5]
  tolerance to oxygen (voltammogram under nitrogen vs under air): highly tolerant to the presence of oxygen
[5]; vs SHE, 25° C., 20 mV s^−1
  reversible reduction potential, first: −0.147 V
  reversible reduction potential, second: −0.386 V

## C[N+](C)(C)CCC[n+]1ccc(-c2c3ccccc3c(-c3cc[n+](CCC[N+](C)(C)C)cc3)c3ccccc23)cc1 [Compound 15]
[1]
  redox reversibility by cyclic voltammetry: electrochemically irreversible

## C[N+](C)(C)CCC[n+]1ccc(-c2cccc(-c3cc[n+](CCC[N+](C)(C)C)cc3)n2)cc1 [Compound 19]
[1]
  redox reversibility by cyclic voltammetry: does not have a reversible potential

## O=O [Compound O2, dioxygen]
[4]
  rate of electron transfer k0: 0.00084 cm/s

## C[N+](C)(C)CCC[n+]1ccc(-c2ccc(-c3cc[n+](CCC[N+](C)(C)C)cc3)cc2)cc1 [Compound 11]
[1]
  redox reversibility by cyclic voltammetry: reversible redox processes
[4]
  rate of electron transfer k0: 0.0198 cm/s
[2]
  average Kc extracted from the radical concentration: 0.2
  Kc from CV: 1.3
  Kd: 11 mM⁻¹
  Kc, obs from EPR: 0.021
[3]
  D at 0% SOC: 3.1 ± 0.1 ×10^−10 m^2 s^−1
  D at 50% SOC: 2.4 ± 0.2 ×10^−10 m^2 s^−1
  D at 100% SOC: 1.6 ± 0.1 ×10^−10 m^2 s^−1

## C[N+](C)(C)CCC[n+]1ccc(-c2ccc(-c3cc[n+](CCC[N+](C)(C)C)cc3)c3ccccc23)cc1 [Compound 12]
[1]
  redox reversibility by cyclic voltammetry: reversible redox processes
